Laboratory results: the supplement of paper PMC13380429

Key:
Conditions in all cases: 72 h
Calu-3 [1] = assay: cell viability relative to DMSO; higher = less toxic
Vero E6 [2] = assay: as above
U2OS [3] = assay: as above
Caco-2 [4] = assay: as above
Calu-3 [5] = assay: relative viability EC50 (midpoint between 100% and the lowest measured viability); higher = less toxic
Vero E6 [6] = assay: as above
U2OS [7] = assay: as above
Caco-2 [8] = assay: as above
Calu-3 [9] = assay: drug sensitivity score (DSS) for viability; higher = more toxic; extreme values may be limits of the assay
Vero E6 [10] = assay: as above
U2OS [11] = assay: as above
Caco-2 [12] = assay: as above
HepG2 [13] = assay: cell viability relative to DMSO; higher = less toxic
HepG2 [14] = assay: drug sensitivity score (DSS) for viability; higher = more toxic; extreme values may be limits of the assay

| SMILES | cell viability (Calu-3 [1]; 1 nM) [%] | cell viability (Calu-3 [1]; 10 nM) [%] | cell viability (Calu-3 [1]; 100 nM) [%] | cell viability (Calu-3 [1]; 1000 nM) [%] | cell viability (Calu-3 [1]; 10000 nM) [%] | cell viability (Vero E6 [2]; 1 nM) [%] | cell viability (Vero E6 [2]; 10 nM) [%] | cell viability (Vero E6 [2]; 100 nM) [%] | cell viability (Vero E6 [2]; 1000 nM) [%] | cell viability (Vero E6 [2]; 10000 nM) [%] | cell viability (U2OS [3]; 1 nM) [%] | cell viability (U2OS [3]; 10 nM) [%] | cell viability (U2OS [3]; 100 nM) [%] | cell viability (U2OS [3]; 1000 nM) [%] | cell viability (U2OS [3]; 10000 nM) [%] | cell viability (Caco-2 [4]; 1 nM) [%] | cell viability (Caco-2 [4]; 10 nM) [%] | cell viability (Caco-2 [4]; 100 nM) [%] | cell viability (Caco-2 [4]; 1000 nM) [%] | cell viability (Caco-2 [4]; 10000 nM) [%] | relative viability EC50 (Calu-3 [5]) [µM] | relative viability EC50 (Vero E6 [6]) [µM] | relative viability EC50 (U2OS [7]) [µM] | relative viability EC50 (Caco-2 [8]) [µM] | drug sensitivity score (Calu-3 [9]) | drug sensitivity score (Vero E6 [10]) | drug sensitivity score (U2OS [11]) | drug sensitivity score (Caco-2 [12]) | cell viability (HepG2 [13]; 1 nM) [%] | cell viability (HepG2 [13]; 10 nM) [%] | cell viability (HepG2 [13]; 100 nM) [%] | cell viability (HepG2 [13]; 1000 nM) [%] | cell viability (HepG2 [13]; 10000 nM) [%] | drug sensitivity score (HepG2 [14]) |
| --- | --- | --- | --- | --- | --- | --- | --- | --- | --- | --- | --- | --- | --- | --- | --- | --- | --- | --- | --- | --- | --- | --- | --- | --- | --- | --- | --- | --- | --- | --- | --- | --- | --- | --- |
| N#Cc1c(O)c2c(-c3ccc(-c4ccccc4O)cc3)csc2[nH]c1=O | 94.3 | 94.8 | 96.7 | 95.5 | 104 | 105 | 101 | 97.3 | 95.4 | 99 | 103 | 108 | 99.8 | 106 | 99.1 | 97.8 | 102 | 95.2 | 98.8 | 96.5 | > 10 | > 10 | > 10 | > 10 | 0 | 0 | 0 | 0 |  |  |  |  |  |  |
| O=C1NC(=O)c2c1c1c3ccccc3n3c1c1c2c2ccccc2n1C1CCC3O1 | 104 | 92.6 | 96.4 | 92 | 95.9 | 98.5 | 94.7 | 95 | 71.7 | 75 | 99.8 | 99.3 | 91.1 | 86.8 | 80 | 101 | 96.2 | 92.9 | 76.9 | 80.7 | > 10 |  | > 10 | > 10 | 0 | 5.5 | 1.9 | 4 | 100 | 99.9 | 98.8 | 57.8 | 56.5 | 7.8 |
| c1ccc(-c2n[nH]c3c2oc2ccccc23)cc1 | 89.6 | 103 | 102 | 105 | 110 | 91 | 96.4 | 91.7 | 90.1 | 102 | 103 | 102 | 98.5 | 99.6 | 93.8 | 107 | 99.4 | 104 | 96.8 | 89.7 | > 10 | > 10 | > 10 | > 10 | 0 | 0 | 0 | 0 | 104 | 106 | 90.1 | 84 | 74.5 | 2.9 |
| OC[C@H]1O[C@@H](O[C@@H]2[C@@H](CO)OC(O)(CO)[C@H]2O)[C@H](O)[C@@H](O)[C@H]1O (mixture of isomers) [lactulose] | 107 | 112 | 99.1 | 104 | 101 | 94.1 | 97.7 | 89.1 | 94.6 | 110 |  |  |  |  |  | 100 | 98.2 | 101 | 104 | 106 | > 10 | > 10 |  | > 10 | 0 | 0 |  | 0 |  |  |  |  |  |  |
| OCCCCO [1,4-butanediol] | 89.2 | 98.4 | 89.4 | 94 | 93.7 | 102 | 102 | 100 | 104 | 93.1 | 101 | 108 | 96.8 | 111 | 97.8 | 98.6 | 112 | 119 | 107 | 102 | > 10 | > 10 | > 10 | > 10 | 0 | 0 | 0 | 0 | 90.8 | 97.9 | 95.7 | 105 | 74.4 | 0.7 |
| C[C@@H](N)[C@@H](O)c1ccccc1 [1S,2R-phenylpropanolamine] | 106 | 106 | 98.8 | 102 | 99.7 | 101 | 101 | 101 | 103 | 97.7 |  |  |  |  |  | 98.5 | 107 | 97.4 | 102 | 110 | > 10 | > 10 |  | > 10 | 0 | 0 |  | 0 |  |  |  |  |  |  |
| CCS(=O)(=O)N(Cc1cccnc1)c1cccc(-c2ccc(C#N)cc2)c1 [CBiPES] | 101 | 96.5 | 97.1 | 96.8 | 112 | 103 | 96.7 | 101 | 96.4 | 85.9 | 104 | 97.2 | 103 | 98.1 | 94.6 | 100 | 99.2 | 98.1 | 92.6 | 76.4 | > 10 | > 10 | > 10 | > 10 | 0 | 0.5 | 0 | 1.6 | 98.5 | 96.3 | 93.7 | 105 | 56.7 | 1.9 |
